What was measured:
C57BL/6 female mice = test: MOG35-55-induced experimental autoimmune encephalomyelitis (EAE); type: in vivo, mouse
Protocol: (A-B) MOG35-55–antigen specific T-cells were activated by irradiated MOG35-55 presenting APCs, in the presence of HTLV FP or HTLV Scr at 10μM. (A) The proliferative responses were assessed by H^3-thymidine incorporation assay, and normalized to the proliferation of non-activated T-cells. The data is presented as mean inhibition of proliferation. n = 12. (B) IFN-γ was measured by ELISA assay. n = 12. (C-D) EAE was induced in C57BL/6 female mice that were treated with a single dose of HTLV FP, HTLV Scr or vehicle. […] (C) Direct clinical measurement of EAE phenotype in a 5-point scale with increased disease symptoms correlating with higher score value. The data is presented as mean EAE clinical score. (D) Mice were weighed the day before EAE induction, and the change (as a percentage) in weight was recorded. The data is presented as mean change from the initial weight. One-way ANOVA was used for statistical analysis. ^a HTLV FP ≠ Vehicle; ^b HTLV FP ≠ Vehicle & HTLV Scr; ^c HTLV FP ≠ HTLV Scr. ^a,b,cP<0.05. (E) Spleenocytes were harvested at 26 DPI and stimulated using MOG35-55. The proliferative responses were assessed by H^3-thymidine incorporation assay and normalized to the proliferation of non-activated T-cells. The data is presented as counts per minute (CPM). n = 7. (F-G) Spleenocytes were harvested at 26 DPI and stimulated using MOG35-55. Media was collected 48 hours following activation and secretion of IFN-γ and IL4 was measured by ELISA assay. […] One-way ANOVA was used for statistical analysis. *P<0.05;**P<0.01;***P<0.001; ns, not significant.
EAE was induced in 9-week-old wild type and homozygous C57BL/6 female mice (Harlan Laboratories Israel/ Weizmann Institute animal facilities) by injecting a peptide comprising residues 35–55 of mouse myelin oligodendrocyte glycoprotein (MOG35–55; PolyPeptide Laboratories, Strasbourg, France). Mice were injected subcutaneously above the lumbar spinal cord with 100 μl of emulsion containing 200 μg/mouse of the encephalitogenic peptide in complete Freund’s adjuvant (BD-Difco) enriched with 250 μg/mouse of heat-inactivated Mycobacterium tuberculosis (BD-Difco) at 0 days post-induction (DPI). The HTLV FP was dissolved in PBS and added to the emulsion (1mg/kg). Pertussis toxin (Enzo Life Sciences) at a dose of 300 ng per mouse was injected intraperitoneally immediately after the encephalitogenic injection, as well as at […]. EAE disease was scored using a five-point grading with 0 for no clinical disease; 1, tail weakness; 2, paraparesis (incomplete paralysis of one or two hindlimbs); 3, paraplegia (complete paralysis of one or two hindlimbs); 4, paraplegia with forelimb weakness or paralysis; 5, moribund or dead animals. The mice were examined daily.
EAE was induced in C57BL/6 female mice that were either treated with a single dose of HTLV FP or vehicle. […] (A) Direct clinical measurement of EAE phenotype in a 5-point scale with increased disease symptoms correlating with higher score value. The data is presented as mean EAE clinical score. (B) Mice were weighed the day before EAE induction, and the change (as a percentage) in weight was recorded. The data is presented as mean change from the initial weight. Student’s t-test was used for statistical analysis. *P<0.05; **P<0.01;***P<0.001. (TIF) Click here for additional data file.

[1] = system: MOG35-55–antigen specific T-cells; test: Cytokine secretion from activated antigen-specific T-cells (ELISA); type: cell-based, mouse (C57Bl/6J); conditions: peptide at 10μM, APC-activated T-cells, media 24 hours following activation, n = 12
Protocol: Fig 2 Modulation of Th1/Th2 gene expression and cytokine secretion from activated T-cells by the HTLV FP. MOG35-55–antigen specific T-cells were activated by irradiated MOG35-55 presenting APCs, in the presence of the HTLV FP at 10μM. (A) Total RNA was isolated 24 hours following activation and mRNA expression levels were determined by qRT-PCR. The values of each gene were normalized to Rpl13a as a housekeeping control. The HTLV FP reduces mRNA expression of Th1 specific genes (IFNG, LTA, and STAT4) and elevates mRNA expression of Th2 specific genes (IL4 and IL10). The data is presented as arbitrary units. n≥3. (B) Media was collected 24 hours following activation and secretion of cytokines was measured by ELISA assay. IFN-γ secretion is inhibited, IL4 secretion is elevated and TNFα is not affected by the HTLV FP. n = 12. One-way ANOVA was used for statistical analysis. *P<0.05; **P<0.01;***P<0.001.
Antigen-specific T-cells were plated onto round 96-well plates in medium containing RPMI-1640 supplemented with 2.5% fetal calf serum (FCS), 100 U/ml penicillin, 100 μg/ml streptomycin, 50μM β-mercaptoethanol, and 2mM L-glutamine. […] In addition, the relevant peptide was added. Each treatment was made with quadruplicate. Analysis of IFN-γ, IL-4 and TNFα secretion was performed by ELISA 24 hours after cell activation according to standard protocols from R&D systems.

[2] = system: MOG35-55–antigen specific T-cells; test: In-vitro T-cell proliferative response (H3-thymidine incorporation); type: cell-based, mouse (C57Bl/6J); conditions: peptide at 10μM, irradiated MOG35-55 presenting APCs, mean inhibition of proliferation, n = 12
[3] = system: human peripheral T lymphocytes; test: Cytokine secretion from primary human peripheral T-cells (ELISA); type: cell-based; conditions: peptide at 10μM, CD3 and CD28 antibodies, media 48 hours following activation, n = 12
Protocol: Fig 4 Primary human T-cell activation is inhibited upon HTLV FP treatment. Human peripheral T lymphocytes were isolated from whole blood and activated using CD3 and CD28 antibodies, in the presence of HTLV FP or HTLV Scr at 10μM. Media was collected 48 hours following activation and secretion of IL2, IFN-γ and IL10 was measured by ELISA assay. […] One-way ANOVA was used for statistical analysis. *P<0.05; ***P<0.001; ns, not significant.
Human peripheral T lymphocytes were isolated from whole blood of healthy adult donors by dextran sedimentation and Ficoll (Sigma) gradient separation followed by depletion of B cells using nylon wool column (Unisorb), to which B cells were adsorbed. Cells were incubated in a complete RPMI growth medium (500 ml RPMI Ca/Mg + heat inactivated FCS (10% final) + 5 ml 200 mM L-Glu (2 mM final) +5 ml […] Na pyruvate (1 mM final) + 5 ml Pen Strep antibiotics) for more than 2 h, and then non-adherent cells were harvested and transferred to a new plate, resulting in ~90% CD3+ T lymphocytes. Cells were then used for in vitro assay, in which […] were plated per well in a 96-well plate and activated using CD3 and CD28 antibodies.
Human peripheral T lymphocytes were isolated from whole blood of healthy donors and were incubated in a complete RPMI growth medium (500 ml RPMI Ca/Mg + heat inactivated FCS (10% final) + 5 ml 200 mM L-Glu (2 mM final) +5 ml […] Na pyruvate (1 mM final) + 5 ml Pen Strep antibiotics). Cells were activated using CD3 and CD28 antibodies, in the presence of relevant peptides at 10μM. Media was collected 48 hours following activation and secretion of IL2 and IFN-γ was determined according to standard protocols from R&D systems.

ASKAASASPVSAGVTGIGVLMLGVVAMGWASLG [HTLV Scr, scrambled HTLV FP peptide, same amino acid composition and length as the HTLV FP]
clinical symptoms of a cage of treated mice at DPI 17 (C57BL/6 female mice; additional experiment, S5 and S6 Movies): exhibiting clinical EAE symptoms | EAE clinical signs, additional experiment (C57BL/6 female mice; single dose 1mg/kg, HTLV FP, HTLV Scr or vehicle, period 11 to 16 DPI, 5-point scale): ascent between 11 to 16 DPI | IFN-γ secretion [1]: higher potency than the HTLV Scr | inhibition of T-cell proliferation, activation by MOG35-55 presenting APCs [2]: higher potency than the HTLV Scr | IFN-γ secretion, human T-cells [3]: had no effect on T-cell activation | IL2 secretion, human T-cells [3]: had no effect on T-cell activation | IL10 secretion, human T-cells [3]: had no effect on T-cell activation
